Consider three compounds from US20090257999A1, “Method of preventing contrast-induced nephropathy” (Inotek Pharmaceuticals Corporation, priority 2007, published 2009).

Series [1] deals with diabetic rats. The series is described as follows: CIN model, Example 5: INO-1001 alone and with NAC in diabetic rats. The class given is in vivo, rat. Conditions: diabetic rats + Iomeprol, NAC 30 mg/kg i.v., INO-1001 10 mg/kg ip, or both, at −30 min. The procedure:
(§1) Male Wistar rats (150-200 g; Harlan Nossanr) were housed in a controlled environment and provided with standard rodent chow and water. Diabetes was induced after 12 h of fasting. The animals received a single 60 mg/kg intravenous (i.v.) injection of streptozotocin (Sigma, St. Louis, Mo.) in 10 mM sodium citrate buffer, pH 4.5 (see figure). Control non-diabetic animals were fasted and received citrate buffer alone. After 24 hours, animals with blood glucose levels greater than 250 mg/dl were considered diabetic. The diabetic state was confirmed by evaluating the blood glucose levels. Ten days following the induction of diabetes rats were anesthetized with 90 mg/kg ketamine i.m. and 10 mg/kg xylazine i.m. and were treated with the contrast agent iomeprol (10 mL/kg injected via the lateral tail vein) or with 0.9% normal saline. The contrast agent used was the low osmolar non-ionic monomer iomeprol (Iomeron, 400 mgI mL-1; Bracco SpA, Milan, Italy) with an osmolality of 726±34 mosmol/kg H2O.
GROUP 1: Diabetic rats only+Placebo (i.v.). GROUP 2: Diabetic rats+Iomeprol+Placebo (i.v.) given at −30 min. GROUP 3: Diabetic rats+Iomeprol+NAC (30 mg/kg, i.v.) given at −30 min. GROUP 4: Diabetic rats+Iomeprol+INO-1001 (10 mg/kg, ip) given at −30 min. GROUP 5: Diabetic rats+Iomeprol+NAC (30 mg/kg, i.v.)+INO-1001 (10 mg/kg, ip) given at −30 min.
(§2) Blood samples were collected via the lateral tail vein into S1/3 tubes containing serum gel at 24 hours. The samples were centrifuged (6000 r.p.m. for 3 min) to separate plasma. All plasma samples were analyzed for biochemical parameters within 24 hours after collection. Plasma and urine concentrations of creatinine were measured as indicators of impaired glomerular function. Creatinine clearance was calculated using the following formula (=UV/P), where U refers to Creatinine concentration in urine, V to urine volume/min and P to serum creatinine. Plasma and urine concentrations of NGAL (neutrophil gelatinase associated lipocalin) levels and urine αGST (alpha glutathione S-transferase) and NGAL levels were evaluated.
Protein concentration in urine was determined by Bio-Rad DC Protein Assay (BioRad, Richmond Calif.). The Bio-Rad DC protein assay is a colorimetric assay for protein concentration. The reaction is similar to the well-documented Lowry assay (Lowry et al., Protein measurement with the Folin phenol reagent, J Biol Chem 193, 265-275 (1951). The Bio-Rad DC protein assay requires only a single 15-minute incubation, and absorbance is stable for a least 2 hours. The amount of protein is expressed in mg/ml.

For series [2] the following is noted: Iomeron, 400 mgI mL-1; cited from earlier work.
In series [3] the test system is diabetic rats. Nature of the series: CIN model, Example 3: M40403 alone and with NAC in diabetic rats. Conditions: diabetic rats + Iomeprol, 24 hours; M40403 0.5 mg/kg i.v. alone or + NAC 3 mg/kg i.v., at −30 min. The class given is in vivo, rat. Here is the method:
as §1, with “12 hours” for “12 h”
as §2, with “gel at 0 and 24 hours.” for “gel at 24 hours.”, “of NGAL levels were” for “of NGAL (neutrophil gelatinase associated lipocalin) levels and urine αGST (alpha glutathione S-transferase) and NGAL levels were”

On to `O=c1[nH]cnc2c1ncn2[C@@H]1O[C@H](CO)[C@@H](O)[C@H]1O` [INO-1001], for which the plasma creatinine result in series [1] (24 h) is “significant reductions”. For the same compound, in series [1] (24 hours), the “plasma NGAL concentration” value is reported as “significant reductions”, the “total protein concentration in the urine” value was “significant reductions”, the “urine NGAL concentration” value is “significant reductions” and the “urine αGST” value is “significant reductions”.

For `CN(C(=O)CO)c1c(I)c(C(=O)NCC(O)CO)c(I)c(C(=O)NCC(O)CO)c1I` (stereo not drawn) [iomeprol], in series [2], the osmolality is recorded as 726±34 mosmol/kg H2O.

Turning to `[Cl-].[Cl-].[Mn+2].c1cc2nc(c1)CN[C@@H]1CCCC[C@H]1NCCN[C@@H]1CCCC[C@H]1NC2` [Metalloporphyrin M40403], in series [3], the “plasma NGAL concentration” value is reported as “significant reduction”, the “plasma Na+” value is “significant reductions”, the “plasma concentrations of K+” value is reported as “significant increase” and the plasma creatinine result is “significant reductions”. In series [3], the “total protein concentrations in the urine” value is reported as “significantly reduced” and the “urine NGAL concentration” value is “significant reduction”.
